SMILES strings stand for the structures. Read-outs that look alike come from different tables or passages of the source.

Common to all, as to assay type: in vivo
Assay [1] relates to Alopecurus myosuroides (ALOMY). In words: Glasshouse assay for herbicidal activity, pre-/post-emergence (percentage phytotoxicity). The conditions noted are these: Alopecurus myosuroides, Rate 250 g/ha, 100%=total damage, 0%=no damage. In short, it runs like this:
(§1)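 Percentage phytotoxicity was assessed visually, 100% meaning total plant damage and 0% none, at 20 days after application for pre-emergence and 15 days for post-emergence. Plants were potted in standard soil and treated after 1 day or about 12 days of growth.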

Another assay has as its system Avena fatua (AVEFA). Described as above. The note with it: Avena fatua, Rate 250 g/ha, 100%=total damage, 0%=no damage. In short, it runs like this:
as §1

Assay [2] has as its system Echinochloa crus-galli (ECHCG). The description is as above. The conditions noted are these: Echinochloa crus-galli, Rate 250 g/ha, 100%=total damage, 0%=no damage. In short, it runs like this:
as §1

Another assay has as its system Lolium perenne (LOLPE). Described as above. The note with it: Lolium perenne, Rate 250 g/ha, 100%=total damage, 0%=no damage. In short, it runs like this:
as §1

The next assay concerns wheat. In words: Post-emergence herbicidal activity against cereal crops (wheat) +/- safener, crop selectivity. The note with it: 100%=total damage to plant, 0%=no damage; for Post-emergence herbicidal activity against wheat (percentage phytotoxicity), +CQC: 250 g/ha, plus safener cloquintocet-mexyl (CQC) applied at 50 g/ha; for percent phytotoxicity (crop damage) to wheat at 250 g/ha: Triticum aestivum, 360 h, without safener, read-out: Post-emergence herbicidal activity against wheat (percentage phytotoxicity), Wheat - CQC. Put shortly: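 Test plants raised in pots in a glasshouse (24/18 °C warm or 20/16 °C cool species day/night, 16 h light, 65% humidity) and treated post-emergence about 12 days after sowing. Visual percentage phytotoxicity scored 15 days after application (0% = no damage, 100% = total damage).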

Where [3] appears, read: 360 h, post-emergence, visual assessment 15 DAA, read-out: Post-emergence herbicidal activity (percentage phytotoxicity), ALOMY POST.
Where [4] appears, read: 480 h, pre-emergence, visual assessment 20 DAA, read-out: Pre-emergence herbicidal activity (percentage phytotoxicity), ALOMY PRE.
Where [5] appears, read: post-emergence, 360 h, post-emergence, visual assessment 15 DAA, read-out: Post-emergence herbicidal activity (percentage phytotoxicity), AVEFA POST.
Setting [6] is: pre-emergence, 480 h, pre-emergence, visual assessment 20 DAA, read-out: Pre-emergence herbicidal activity (percentage phytotoxicity), AVEFA PRE.
The mark [7] stands for this setting: post-emergence, 360 h, post-emergence, visual assessment 15 DAA, read-out: Post-emergence herbicidal activity (percentage phytotoxicity), ECHCG POST.
Setting [8] is: pre-emergence, 480 h, pre-emergence, visual assessment 20 DAA, read-out: Pre-emergence herbicidal activity (percentage phytotoxicity), ECHCG PRE.
The mark [9] stands for this setting: post-emergence, 360 h, post-emergence, visual assessment 15 DAA, read-out: Post-emergence herbicidal activity (percentage phytotoxicity), LOLPE POST.
Where [10] appears, read: pre-emergence, 480 h, pre-emergence, visual assessment 20 DAA, read-out: Pre-emergence herbicidal activity (percentage phytotoxicity), LOLPE PRE.

Regarding `Cc1cc(-c2ncccc2F)cc(C)c1C1C(=O)CC(CCNC(=O)Nc2ccccn2)C1=O.Cl` (centres unmarked) [Compound A24], the pest or weed control at 250 g/ha in assay [1] (setting [3]) amounted to 60%; in assay [1] (setting [4]) it was 10%; in the assay with Avena fatua (AVEFA) (setting [5]), 100%; in the assay on Avena fatua (AVEFA) (setting [6]), 70%; in assay [2] (setting [7]) it was 100%; in assay [2] (setting [8]), 90%. In addition, the values for the pest or weed control at 250 g/ha in the assay on Lolium perenne (LOLPE) (setting [9]) and in the assay with Lolium perenne (LOLPE) (setting [10]) were 90% and 80%, respectively. For the same compound, the “Post-emergence herbicidal activity against wheat (percentage phytotoxicity), +CQC” value in the assay on wheat turned out to be 70%. For the same compound, in the assay on wheat, the percent phytotoxicity (crop damage) to wheat at 250 g/ha amounted to 80%.
For the compound `Cc1cc(C)c(C2C(=O)CC(CCNC(=O)NC(=O)c3ccc(F)cc3C(F)(F)F)C2=O)c(C)c1` (centres unmarked) [Compound A69], the pest or weed control at 250 g/ha was found to be 100% in assay [1] (setting [3]); 80% in assay [1] (setting [4]); 90% in the assay with Avena fatua (AVEFA) (setting [5]); 80% with Avena fatua (AVEFA) (setting [6]); 70% in assay [2] (setting [7]); 70% in assay [2] (setting [8]). Moreover, the values for the pest or weed control at 250 g/ha with Lolium perenne (LOLPE) (setting [9]) and in the assay on Lolium perenne (LOLPE) (setting [10]) were 100% and 80%, respectively. The “Post-emergence herbicidal activity against wheat (percentage phytotoxicity), +CQC” value in the assay on wheat is 80%. Further, the percent phytotoxicity (crop damage) to wheat at 250 g/ha with wheat worked out at 90%.
In the case of `Cc1cc(C)c(C2C(=O)CC(CCNC(=O)Nc3ncccn3)C2=O)c(C)c1` (centres unmarked) [Compound A30], the pest or weed control at 250 g/ha in assay [1] (setting [3]) was found to be 90%; in assay [1] (setting [4]) it was 80%; with Avena fatua (AVEFA) (setting [5]), 80%; with Avena fatua (AVEFA) (setting [6]), 80%; in assay [2] (setting [7]), 90%; in assay [2] (setting [8]), 60%. Further, the figures for the pest or weed control at 250 g/ha in the assay on Lolium perenne (LOLPE) (setting [9]) and with Lolium perenne (LOLPE) (setting [10]) were 80% and 90%, respectively. Moreover, in the assay with wheat, the “Post-emergence herbicidal activity against wheat (percentage phytotoxicity), +CQC” value is listed as 40%. Moreover, the percent phytotoxicity (crop damage) to wheat at 250 g/ha with wheat stood at 70%.
`Cc1cc(C)c(C2C(=O)CC(CCNC(=O)NC(=O)c3ccccc3Cl)C2=O)c(C)c1` (centres unmarked) [Compound A49]: the pest or weed control at 250 g/ha in assay [1] (setting [3]) amounted to 100%; in assay [1] (setting [4]) it was 90%; in the assay on Avena fatua (AVEFA) (setting [5]) it was 100%; with Avena fatua (AVEFA) (setting [6]), 80%; in assay [2] (setting [7]), 100%; in assay [2] (setting [8]), 100%. Also, the pest or weed control at 250 g/ha in the assay with Lolium perenne (LOLPE) (setting [9]) was 100%; with Lolium perenne (LOLPE) (setting [10]) it was 90%. Also, the “Post-emergence herbicidal activity against wheat (percentage phytotoxicity), +CQC” value in the assay on wheat was 90%. Also, the percent phytotoxicity (crop damage) to wheat at 250 g/ha in the assay with wheat worked out at 90%.
Take `Cc1cc(C)c(C2C(=O)CC(CCNS(=O)(=O)c3ccc(C(F)(F)F)cc3)C2=O)c(C)c1` (centres unmarked) [Compound A74]: the pest or weed control at 250 g/ha in assay [1] (setting [3]) was determined as 50%; in assay [1] (setting [4]), 70%; in the assay with Avena fatua (AVEFA) (setting [6]), 90%; in assay [2] (setting [7]), 60%; in assay [2] (setting [8]) it was 70%; with Lolium perenne (LOLPE) (setting [9]), 60%. Also, in the assay on Lolium perenne (LOLPE) (setting [10]), the pest or weed control at 250 g/ha was found to be 70%. Besides, in the assay with wheat, the “Post-emergence herbicidal activity against wheat (percentage phytotoxicity), +CQC” value stood at 0%. The percent phytotoxicity (crop damage) to wheat at 250 g/ha in the assay with wheat turned out to be 10%.
For the compound `Cc1cc(-c2ncc(Cl)cc2F)cc(C)c1C1C(=O)CC(CCNC(=O)N(C)c2ccccn2)C1=O.Cl` (centres unmarked) [Compound A27], the pest or weed control at 250 g/ha is 90% in assay [1] (setting [3]); 60% in assay [1] (setting [4]); 90% with Avena fatua (AVEFA) (setting [5]); 90% in the assay with Avena fatua (AVEFA) (setting [6]); 100% in assay [2] (setting [7]); 90% in assay [2] (setting [8]). The pest or weed control at 250 g/ha was 100% in the assay with Lolium perenne (LOLPE) (setting [9]) and 90% with Lolium perenne (LOLPE) (setting [10]). For the same compound, the “Post-emergence herbicidal activity against wheat (percentage phytotoxicity), +CQC” value in the assay with wheat was found to be 70%. In addition, the percent phytotoxicity (crop damage) to wheat at 250 g/ha in the assay on wheat amounted to 80%.
In the case of `Cc1cc(C)c(C2C(=O)CC(CCNC(=O)NC(=O)c3ccc(C(F)(F)F)c(F)c3)C2=O)c(C)c1` (centres unmarked) [Compound A61], the pest or weed control at 250 g/ha in assay [1] (setting [3]) stood at 40%; in assay [1] (setting [4]), 20%; in the assay on Avena fatua (AVEFA) (setting [5]), 0%; in the assay with Avena fatua (AVEFA) (setting [6]), 30%; in assay [2] (setting [7]) it was 70%; in assay [2] (setting [8]), 30%. Also, the pest or weed control at 250 g/ha in the assay with Lolium perenne (LOLPE) (setting [9]) was found to be 70%; with Lolium perenne (LOLPE) (setting [10]), 40%. The “Post-emergence herbicidal activity against wheat (percentage phytotoxicity), +CQC” value in the assay with wheat is reported as 40%. For the same compound, the percent phytotoxicity (crop damage) to wheat at 250 g/ha in the assay on wheat came out at 70%.
On to `Cc1cc(C)c(C2C(=O)CC(CCNC(=O)Nc3ccccc3)C2=O)c(C)c1` (centres unmarked) [Compound A9, 1-[2-[2,4-dioxo-3-(2,4,6-trimethylphenyl)cyclopentyl]ethyl]-3-phenyl-urea], for which the pest or weed control at 250 g/ha was determined as 30% in assay [1] (setting [3]); 60% in assay [1] (setting [4]); 80% in the assay with Avena fatua (AVEFA) (setting [5]); 60% with Avena fatua (AVEFA) (setting [6]); 80% in assay [2] (setting [7]); 80% in assay [2] (setting [8]). For the same compound, the results for the pest or weed control at 250 g/ha in the assay on Lolium perenne (LOLPE) (setting [9]) and with Lolium perenne (LOLPE) (setting [10]) were 90% and 80%, respectively. Moreover, the “Post-emergence herbicidal activity against wheat (percentage phytotoxicity), +CQC” value in the assay with wheat was determined as 10%. In addition, the percent phytotoxicity (crop damage) to wheat at 250 g/ha in the assay on wheat turned out to be 40%.
Consider `Cc1cc(C)c(C2C(=O)CC(CCNC(=O)NC(=O)c3cc(C(F)(F)F)ccc3Cl)C2=O)c(C)c1` (centres unmarked) [Compound A62], for which the pest or weed control at 250 g/ha turned out to be 90% in assay [1] (setting [3]); 70% in assay [1] (setting [4]); 80% with Avena fatua (AVEFA) (setting [5]); 30% in the assay with Avena fatua (AVEFA) (setting [6]); 80% in assay [2] (setting [7]); 80% in assay [2] (setting [8]). Also, the results for the pest or weed control at 250 g/ha with Lolium perenne (LOLPE) (setting [9]) and in the assay with Lolium perenne (LOLPE) (setting [10]) were 80% and 40%, respectively. The “Post-emergence herbicidal activity against wheat (percentage phytotoxicity), +CQC” value in the assay on wheat stood at 70%. Also, the percent phytotoxicity (crop damage) to wheat at 250 g/ha in the assay with wheat turned out to be 80%.
Consider `Cc1cc(C)c(C2C(=O)CC(CCNC(=O)NC(=O)c3ccccc3C(F)(F)F)C2=O)c(C)c1` (centres unmarked) [Compound A60], for which the pest or weed control at 250 g/ha in assay [1] (setting [3]) worked out at 100%; in assay [1] (setting [4]), 70%; in the assay on Avena fatua (AVEFA) (setting [5]), 100%; in the assay with Avena fatua (AVEFA) (setting [6]), 80%; in assay [2] (setting [7]), 80%; in assay [2] (setting [8]), 70%. Also, the values for the pest or weed control at 250 g/ha with Lolium perenne (LOLPE) (setting [9]) and in the assay with Lolium perenne (LOLPE) (setting [10]) were 90% and 80%, respectively. Besides, the “Post-emergence herbicidal activity against wheat (percentage phytotoxicity), +CQC” value with wheat amounted to 70%. Also, in the assay on wheat, the percent phytotoxicity (crop damage) to wheat at 250 g/ha was found to be 80%.
For the compound `Cc1cc(-n2cc(Cl)cn2)cc(C)c1C1C(=O)CC(CCNC(=O)Nc2ncccn2)C1=O.Cl` (centres unmarked) [Compound A32], the pest or weed control at 250 g/ha in assay [1] (setting [3]) was 80%; in assay [1] (setting [4]), 70%; in the assay on Avena fatua (AVEFA) (setting [5]), 100%; with Avena fatua (AVEFA) (setting [6]), 50%; in assay [2] (setting [7]), 100%; in assay [2] (setting [8]), 80%. The pest or weed control at 250 g/ha in the assay with Lolium perenne (LOLPE) (setting [9]) and with Lolium perenne (LOLPE) (setting [10]) was 60% throughout. Moreover, the “Post-emergence herbicidal activity against wheat (percentage phytotoxicity), +CQC” value in the assay with wheat amounted to 10%. Further, the percent phytotoxicity (crop damage) to wheat at 250 g/ha in the assay on wheat came out at 60%.
Consider `Cc1cc(C)c(C2C(=O)CC(CCNC(=O)NC(=O)c3ccc(OC(F)(F)F)cc3)C2=O)c(C)c1` (centres unmarked) [Compound A71], for which the pest or weed control at 250 g/ha was 20% in assay [1] (setting [3]); 30% in assay [1] (setting [4]); 50% with Avena fatua (AVEFA) (setting [5]); 20% in the assay with Avena fatua (AVEFA) (setting [6]); 80% in assay [2] (setting [7]); 0% in assay [2] (setting [8]). In addition, the figures for the pest or weed control at 250 g/ha with Lolium perenne (LOLPE) (setting [9]) and with Lolium perenne (LOLPE) (setting [10]) were 80% and 40%, respectively. Also, the “Post-emergence herbicidal activity against wheat (percentage phytotoxicity), +CQC” value in the assay with wheat was found to be 20%. Besides, in the assay on wheat, the percent phytotoxicity (crop damage) to wheat at 250 g/ha was found to be 80%.

The values are drawn from US10301295B2, “Herbicidal compounds” (Syngenta Participations AG, priority 2014, dated 2019).
